The text below walks through data of patent US9302991B2, “Arylamide derivatives as TTX-S blockers” (RaQualia Pharma Inc., priority 2010, dated 2016).

Where only a bound is given, the exact number is not on record here.

The target in one test is T1, human Nav1.3 channels (Homo sapiens, UniProt Q9NY46).
T1 construct: expressed in transfected cells; host or cells: HEK293
The test can be described thus: FRET assay, human Nav1.3 (EFS on FDSS). The class given is cell-based. The note with it: HEK293 cells expressing human Nav1.3, read-out: IC50 against Nav1.3. The gist of the method:
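HEK293 cells expressing the channel, loaded with 10 microM CC2-DMPE then 15 microM DiSBAC2(3) plus 0.555 mM VABSC-1 in pH 7.4 HEPES buffer at room temperature. Membrane potential changes evoked by electrical field stimulation after compound addition; IC50 from 440 nm-normalized FRET ratios.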

The target in the next test is T2, human Nav1.7 channels (Homo sapiens, UniProt Q15858).
T2 construct: expressed in transfected cells; host or cells: CHO
Briefly: FRET assay, human Nav1.7 (EFS on FDSS). The class given is cell-based. The note with it: CHO cells expressing human Nav1.7, read-out: IC50 against Nav1.7. The gist of the method:
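CHO cells stably expressing the channel, loaded with CC2-DMPE (10 µM) then DiSBAC2(3) (15 µM) plus VABSC-1, in HEPES-buffered saline pH 7.4 at room temperature. Electrical field stimulation on FDSS; FRET ratio at 440 nm fitted for IC50.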

T2 sequence (Q15858 whole entry): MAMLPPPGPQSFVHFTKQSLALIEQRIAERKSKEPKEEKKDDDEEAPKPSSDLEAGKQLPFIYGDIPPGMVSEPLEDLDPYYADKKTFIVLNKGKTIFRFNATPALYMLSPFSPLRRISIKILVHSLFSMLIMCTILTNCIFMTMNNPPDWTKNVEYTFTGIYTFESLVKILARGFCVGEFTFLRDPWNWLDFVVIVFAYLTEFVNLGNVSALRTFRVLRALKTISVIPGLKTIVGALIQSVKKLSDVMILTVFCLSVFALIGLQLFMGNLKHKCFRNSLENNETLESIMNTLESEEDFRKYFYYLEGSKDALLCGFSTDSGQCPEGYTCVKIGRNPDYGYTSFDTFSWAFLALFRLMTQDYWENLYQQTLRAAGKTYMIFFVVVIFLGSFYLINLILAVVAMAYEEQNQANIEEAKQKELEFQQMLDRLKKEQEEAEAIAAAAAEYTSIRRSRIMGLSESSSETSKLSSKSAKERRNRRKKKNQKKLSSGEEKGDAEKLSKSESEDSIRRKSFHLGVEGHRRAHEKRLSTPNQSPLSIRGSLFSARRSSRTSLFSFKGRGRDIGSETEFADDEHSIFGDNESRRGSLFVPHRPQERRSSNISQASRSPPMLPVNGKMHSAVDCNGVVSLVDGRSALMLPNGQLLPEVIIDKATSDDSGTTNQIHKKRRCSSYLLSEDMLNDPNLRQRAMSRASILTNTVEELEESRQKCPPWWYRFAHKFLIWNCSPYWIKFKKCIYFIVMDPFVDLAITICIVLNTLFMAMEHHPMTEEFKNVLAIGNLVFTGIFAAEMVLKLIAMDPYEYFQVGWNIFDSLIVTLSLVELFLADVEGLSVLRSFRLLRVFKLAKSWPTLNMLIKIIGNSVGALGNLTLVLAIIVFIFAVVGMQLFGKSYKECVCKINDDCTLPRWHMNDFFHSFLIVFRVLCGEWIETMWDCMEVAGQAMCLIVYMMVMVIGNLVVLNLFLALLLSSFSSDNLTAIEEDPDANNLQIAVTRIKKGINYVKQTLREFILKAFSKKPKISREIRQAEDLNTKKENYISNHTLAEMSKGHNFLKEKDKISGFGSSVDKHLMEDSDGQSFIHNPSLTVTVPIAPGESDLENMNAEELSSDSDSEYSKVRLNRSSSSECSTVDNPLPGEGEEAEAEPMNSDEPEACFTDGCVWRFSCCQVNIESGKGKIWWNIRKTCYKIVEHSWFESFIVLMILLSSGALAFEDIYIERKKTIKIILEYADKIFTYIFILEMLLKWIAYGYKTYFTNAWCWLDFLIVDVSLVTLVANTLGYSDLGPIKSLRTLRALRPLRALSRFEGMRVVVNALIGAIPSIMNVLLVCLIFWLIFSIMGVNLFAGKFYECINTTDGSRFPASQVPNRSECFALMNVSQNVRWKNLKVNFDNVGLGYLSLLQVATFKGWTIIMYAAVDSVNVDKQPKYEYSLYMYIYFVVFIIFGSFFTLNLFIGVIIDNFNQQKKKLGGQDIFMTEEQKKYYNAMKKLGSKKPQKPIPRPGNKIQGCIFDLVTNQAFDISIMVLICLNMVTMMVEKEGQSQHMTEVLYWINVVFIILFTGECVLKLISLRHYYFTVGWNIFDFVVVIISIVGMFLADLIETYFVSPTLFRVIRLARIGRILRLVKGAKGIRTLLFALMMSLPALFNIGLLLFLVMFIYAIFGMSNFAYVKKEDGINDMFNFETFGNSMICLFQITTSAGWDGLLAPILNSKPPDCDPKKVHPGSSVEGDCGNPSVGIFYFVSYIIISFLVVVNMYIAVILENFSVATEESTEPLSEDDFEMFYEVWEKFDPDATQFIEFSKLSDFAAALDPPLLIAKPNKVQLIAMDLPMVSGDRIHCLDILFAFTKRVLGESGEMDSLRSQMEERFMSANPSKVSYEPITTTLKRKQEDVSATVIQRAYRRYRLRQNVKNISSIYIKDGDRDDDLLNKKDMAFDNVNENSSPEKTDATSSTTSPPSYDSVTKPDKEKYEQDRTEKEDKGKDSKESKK
T1 sequence (Q9NY46 whole entry): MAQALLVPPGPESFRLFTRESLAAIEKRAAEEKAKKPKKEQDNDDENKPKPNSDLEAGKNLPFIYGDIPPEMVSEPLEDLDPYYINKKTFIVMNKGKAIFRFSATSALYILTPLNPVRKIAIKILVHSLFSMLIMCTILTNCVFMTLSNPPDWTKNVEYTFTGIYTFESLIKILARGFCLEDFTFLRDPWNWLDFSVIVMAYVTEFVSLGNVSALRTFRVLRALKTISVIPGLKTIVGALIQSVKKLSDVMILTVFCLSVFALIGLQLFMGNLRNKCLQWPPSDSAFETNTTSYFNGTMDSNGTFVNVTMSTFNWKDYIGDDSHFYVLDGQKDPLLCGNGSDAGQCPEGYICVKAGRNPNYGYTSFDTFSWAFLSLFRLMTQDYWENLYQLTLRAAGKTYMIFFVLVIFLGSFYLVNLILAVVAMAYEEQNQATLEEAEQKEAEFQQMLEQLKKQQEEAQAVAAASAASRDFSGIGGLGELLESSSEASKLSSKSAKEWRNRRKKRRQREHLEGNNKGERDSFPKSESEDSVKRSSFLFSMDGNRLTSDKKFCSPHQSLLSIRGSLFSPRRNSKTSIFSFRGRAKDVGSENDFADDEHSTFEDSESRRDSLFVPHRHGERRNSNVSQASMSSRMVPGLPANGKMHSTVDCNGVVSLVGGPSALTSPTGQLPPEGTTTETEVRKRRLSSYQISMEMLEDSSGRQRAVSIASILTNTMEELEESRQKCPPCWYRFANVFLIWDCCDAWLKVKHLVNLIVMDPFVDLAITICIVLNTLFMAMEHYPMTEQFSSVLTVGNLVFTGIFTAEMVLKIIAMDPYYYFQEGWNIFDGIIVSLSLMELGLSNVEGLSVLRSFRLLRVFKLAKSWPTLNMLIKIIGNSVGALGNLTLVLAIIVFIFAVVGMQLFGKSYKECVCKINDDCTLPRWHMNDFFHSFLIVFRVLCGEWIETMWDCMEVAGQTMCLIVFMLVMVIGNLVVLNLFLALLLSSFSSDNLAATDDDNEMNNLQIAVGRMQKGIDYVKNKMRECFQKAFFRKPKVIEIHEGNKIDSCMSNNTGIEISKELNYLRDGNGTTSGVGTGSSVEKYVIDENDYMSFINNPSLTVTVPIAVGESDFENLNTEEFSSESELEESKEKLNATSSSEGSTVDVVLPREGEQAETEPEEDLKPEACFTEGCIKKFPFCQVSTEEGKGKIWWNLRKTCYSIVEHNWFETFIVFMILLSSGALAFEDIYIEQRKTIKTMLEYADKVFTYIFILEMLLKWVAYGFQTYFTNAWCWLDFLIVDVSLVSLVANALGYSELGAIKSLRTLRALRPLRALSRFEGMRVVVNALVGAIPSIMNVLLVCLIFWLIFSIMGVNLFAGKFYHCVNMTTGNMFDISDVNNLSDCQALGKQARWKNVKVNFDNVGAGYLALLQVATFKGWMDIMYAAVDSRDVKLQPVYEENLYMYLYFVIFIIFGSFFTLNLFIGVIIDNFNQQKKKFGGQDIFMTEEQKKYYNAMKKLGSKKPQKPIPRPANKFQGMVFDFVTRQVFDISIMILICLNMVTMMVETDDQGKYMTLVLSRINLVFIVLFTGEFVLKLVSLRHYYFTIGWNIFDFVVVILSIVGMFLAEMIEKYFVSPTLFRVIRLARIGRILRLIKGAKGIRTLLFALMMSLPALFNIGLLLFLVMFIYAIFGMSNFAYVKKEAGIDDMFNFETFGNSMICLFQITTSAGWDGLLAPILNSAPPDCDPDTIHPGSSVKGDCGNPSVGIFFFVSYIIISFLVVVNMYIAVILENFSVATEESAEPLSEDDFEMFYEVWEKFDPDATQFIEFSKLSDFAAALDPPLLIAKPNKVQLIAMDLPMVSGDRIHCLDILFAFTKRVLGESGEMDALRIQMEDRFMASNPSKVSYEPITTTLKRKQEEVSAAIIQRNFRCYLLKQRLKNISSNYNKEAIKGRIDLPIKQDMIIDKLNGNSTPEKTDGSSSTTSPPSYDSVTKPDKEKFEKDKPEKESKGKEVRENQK

On to `CC(=O)Nc1nc(C)cc(C(=O)NCc2cnc(OCC(F)(F)F)c(C)c2)n1` [Example 363, 2-acetamido-6-methyl-N-((5-methyl-6-(2,2,2-trifluoroethoxy)pyridin-3-yl)methyl)pyrimidine-4-carboxamide], for which the IC50 at human Nav1.3 channels and on human Nav1.7 channels was less than 1000 nM each time.

`CCC(=O)Nc1cc(C(=O)NCc2cnc(OCC(F)(F)F)c(C)c2)ccn1` [Example 368, N-((5-methyl-6-(2,2,2-trifluoroethoxy)pyridin-3-yl)methyl)-2-propionamidoisonicotinamide]: the IC50 on human Nav1.3 channels and at human Nav1.7 channels was less than 1000 nM in each case.

For `Cc1cc(C(=O)NCc2ccc(OC(F)(F)F)c(C)c2)nc(NC(=O)C2CC2)n1` [Example 811, 2-(cyclopropanecarboxamido)-6-methyl-N-(3-methyl-4-(trifluoromethoxy)benzyl)pyrimidine-4-carboxamide], the IC50 at human Nav1.3 channels and on human Nav1.7 channels was less than 1000 nM throughout.

Regarding `O=C(NCc1cnc(OCC(F)(F)F)c(Br)c1)c1ccnc(NC(=O)C2CC2)c1` [Example 896, N-((5-bromo-6-(2,2,2-trifluoroethoxy)pyridin-3-yl)methyl)-2-(cyclopropanecarboxamido)isonicotinamide], the IC50 at human Nav1.3 channels and on human Nav1.7 channels was less than 1000 nM throughout.

Consider `Cc1cc(CNC(=O)c2ccnc(NC(=O)C3CC3)n2)cnc1OCC(F)(F)C(F)F` [Example 943, 2-(cyclopropanecarboxamido)-N-((5-methyl-6-(2,2,3,3-tetrafluoropropoxy)pyridin-3-yl)methyl)pyrimidine-4-carboxamide], for which the IC50 on human Nav1.3 channels and at human Nav1.7 channels was less than 1000 nM throughout.

In the case of `Cc1cc(C(=O)NC(C)c2cnc(OCC(F)(F)F)c(Cl)c2)cc(NC(=O)C2CC2)n1` (single isomer, unassigned) [Example 832, N-(1-(5-chloro-6-(2,2,2-trifluoroethoxy)pyridin-3-yl)ethyl)-2-(cyclopropanecarboxamido)-6-methylisonicotinamide], the IC50 on human Nav1.3 channels and on human Nav1.7 channels was less than 1000 nM each time.

Take `Cc1cc(C(=O)NC(C)c2cnc(OCC(F)(F)F)c(C)c2)nc(Nc2ncco2)n1` (single isomer, unassigned) [Example 456, 6-methyl-N-(1-(5-methyl-6-(2,2,2-trifluoroethoxy)pyridin-3-yl)ethyl)-2-(oxazol-2-ylamino)pyrimidine-4-carboxamide]: the IC50 on human Nav1.3 channels and on human Nav1.7 channels was less than 1000 nM in each case.

In the case of `Cc1cc(C(C)NC(=O)c2ccnc(NC(=O)C3CC3)n2)cnc1OCC(F)(F)F` (single isomer, unassigned) [Example 224, 2-(cyclopropanecarboxamido)-N-(1-(5-methyl-6-(2,2,2-trifluoroethoxy)pyridin-3-yl)ethyl)pyrimidine-4-carboxamide], the IC50 on human Nav1.3 channels and at human Nav1.7 channels was less than 1000 nM each time.

As for `Cc1cc(CNC(=O)c2ccnc(NC(=O)C(C)C)c2)ccc1OCC(F)(F)F` [Example 791, 2-isobutyramido-N-(3-methyl-4-(2,2,2-trifluoroethoxy)benzyl)isonicotinamide], the IC50 at human Nav1.3 channels and at human Nav1.7 channels was less than 1000 nM in each case.

Take `Cc1cc(C(=O)NCc2cccc(C(F)(F)F)c2)cc(NC(=O)C(C)C)n1` [Example 534, 2-isobutyramido-6-methyl-N-(3-(trifluoromethyl)benzyl)isonicotinamide]: the concentration for half-maximal inhibition (IC50) at human Nav1.3 channels and at human Nav1.7 channels was less than 1000 nM each time.

On to `CCC(=O)Nc1cc(C(=O)NC(C)c2ccc(OCC(F)(F)F)cc2)cc(C)n1` (single isomer, unassigned) [Example 136, 2-methyl-6-propionamido-N-(1-(4-(2,2,2-trifluoroethoxy)phenyl)ethyl)isonicotinamide], for which the 50% inhibitory concentration (IC50) on human Nav1.3 channels and at human Nav1.7 channels was less than 1000 nM throughout.

Turning to `CC(=O)Nc1cc(C(=O)NCc2ccc(OC(F)(F)F)c(C)c2)ccn1` [Example 804, 2-acetamido-N-(3-methyl-4-(trifluoromethoxy)benzyl)isonicotinamide], the IC50 at human Nav1.3 channels and on human Nav1.7 channels was less than 1000 nM in each case.

Consider `CC(=O)Nc1cc(C(=O)NCc2cccc(OC(F)(F)F)c2)cc(C)n1` [Example 525, 2-acetamido-6-methyl-N-(3-(trifluoromethoxy)benzyl)isonicotinamide], for which the IC50 on human Nav1.3 channels and at human Nav1.7 channels was less than 1000 nM in each case.

Regarding `CC(=O)Nc1nc(C)cc(C(=O)NC(C)c2cnc(OCC(F)(F)F)c(C)c2)n1` (single isomer, unassigned) [Example 235, 2-acetamido-6-methyl-N-(1-(5-methyl-6-(2,2,2-trifluoroethoxy)pyridin-3-yl)ethyl)pyrimidine-4-carboxamide], the IC50 on human Nav1.3 channels and on human Nav1.7 channels was less than 1000 nM each time.

As for `Cc1cc(C(=O)NCc2cccc(OC(F)(F)F)c2)cc(NC(=O)CC2CC2)n1` [Example 962, 2-(2-cyclopropylacetamido)-6-methyl-N-(3-(trifluoromethoxy)benzyl)isonicotinamide], the IC50 on human Nav1.3 channels and at human Nav1.7 channels was less than 1000 nM each time.

For `Cc1cc(C(=O)NC(C)c2cnc(OCC(F)(F)F)c(C)c2)nc(NC(=O)C(C)C)n1` (single isomer, unassigned) [Example 229, 2-isobutyramido-6-methyl-N-(1-(5-methyl-6-(2,2,2-trifluoroethoxy)pyridin-3-yl)ethyl)pyrimidine-4-carboxamide], the IC50 at human Nav1.3 channels and at human Nav1.7 channels was less than 1000 nM each time.

With `Cc1c(CNC(=O)c2ccnc(NC(=O)C(C)C)c2)cccc1C(F)(F)F` [Example 816, 2-isobutyramido-N-(2-methyl-3-(trifluoromethyl)benzyl)isonicotinamide], the IC50 on human Nav1.3 channels and at human Nav1.7 channels was less than 1000 nM each time.

On to `CCC(=O)Nc1cc(C(=O)NCc2ccc(OCC(F)(F)F)c(C)c2)cc(C)n1` [Example 793, 2-methyl-N-(3-methyl-4-(2,2,2-trifluoroethoxy)benzyl)-6-propionamidoisonicotinamide], for which the IC50 on human Nav1.3 channels and on human Nav1.7 channels was less than 1000 nM throughout.

Turning to `Cc1cc(C(=O)NC(C)c2cnc(OCC(F)(F)F)c(C)c2)cc(NC(=O)CC2CC2)n1` (single isomer, unassigned) [Example 953, 2-(2-cyclopropylacetamido)-6-methyl-N-(1-(5-methyl-6-(2,2,2-trifluoroethoxy)pyridin-3-yl)ethyl)isonicotinamide], the IC50 on human Nav1.3 channels and at human Nav1.7 channels was less than 1000 nM throughout.

Take `CC(=O)Nc1cc(C(=O)NCc2cnc(OCC(F)(F)F)c(Br)c2)cc(C)n1` [Example 899, 2-acetamido-N-((5-bromo-6-(2,2,2-trifluoroethoxy)pyridin-3-yl)methyl)-6-methylisonicotinamide]: the half-inhibitory concentration (IC50) at human Nav1.3 channels and at human Nav1.7 channels was less than 1000 nM throughout.

For the compound `O=C(NCc1ccc(OCC(F)(F)F)nc1)c1ccnc(NC(=O)C2CC2)c1` [Example 152, 2-(cyclopropanecarboxamido)-N-((6-(2,2,2-trifluoroethoxy)pyridin-3-yl)methyl)isonicotinamide], the IC50 at human Nav1.3 channels and at human Nav1.7 channels was less than 1000 nM each time.

Turning to `CC(=O)Nc1cc(C(=O)NCc2cnc(OCC(F)(F)C(F)F)c(C)c2)cc(C)n1` [Example 944, 2-acetamido-6-methyl-N-((5-methyl-6-(2,2,3,3-tetrafluoropropoxy)pyridin-3-yl)methyl)isonicotinamide], the IC50 on human Nav1.3 channels and at human Nav1.7 channels was less than 1000 nM throughout.

Turning to `CC(=O)Nc1cc(C(=O)NC(C)c2cnc(OCC(F)(F)F)c(C)c2)ccn1` (single isomer, unassigned) [Example 85, 2-acetamido-N-(1-(5-methyl-6-(2,2,2-trifluoroethoxy)pyridin-3-yl)ethyl)isonicotinamide], the IC50 at human Nav1.3 channels and at human Nav1.7 channels was less than 1000 nM each time.

For the compound `CC(=O)Nc1cc(C(=O)NCc2cnc(OCC(F)(F)C(F)F)c(C)c2)ccn1` [Example 939, 2-acetamido-N-((5-methyl-6-(2,2,3,3-tetrafluoropropoxy)pyridin-3-yl)methyl)isonicotinamide], the IC50 on human Nav1.3 channels and at human Nav1.7 channels was less than 1000 nM in each case.

As to `O=C(NCc1cnc(OCC(F)F)c(Cl)c1)c1ccnc(NC(=O)C2CC2)n1` [Example 707, N-((5-chloro-6-(2,2-difluoroethoxy)pyridin-3-yl)methyl)-2-(cyclopropanecarboxamido)pyrimidine-4-carboxamide], the IC50 at human Nav1.3 channels and at human Nav1.7 channels was less than 1000 nM in each case.

As for `Cc1cc(C(C)NC(=O)c2ccnc(NC(=O)C3CCC3)n2)cnc1OCC(F)(F)F` (single isomer, unassigned) [Example 226, 2-(cyclobutanecarboxamido)-N-(1-(5-methyl-6-(2,2,2-trifluoroethoxy)pyridin-3-yl)ethyl)pyrimidine-4-carboxamide], the IC50 at human Nav1.3 channels and on human Nav1.7 channels was less than 1000 nM in each case.

Turning to `CCC(=O)Nc1cc(C(=O)NC(C)c2cnc(OCC(F)(F)F)c(C)c2)cc(C)n1` (single isomer, unassigned) [Example 132, 2-methyl-N-(1-(5-methyl-6-(2,2,2-trifluoroethoxy)pyridin-3-yl)ethyl)-6-propionamidoisonicotinamide], the IC50 at human Nav1.3 channels and on human Nav1.7 channels was less than 1000 nM each time.

On to `CCC(=O)Nc1cc(C(=O)NCc2cc(C(F)(F)F)ccc2F)cc(C)n1` [Example 128, N-(2-fluoro-5-(trifluoromethyl)benzyl)-2-methyl-6-propionamidoisonicotinamide], for which the IC50 on human Nav1.3 channels and on human Nav1.7 channels was less than 1000 nM each time.

Turning to `CCC(=O)Nc1cc(C(=O)N[C@H](C)c2cccc(C(F)(F)F)c2)cc(C)n1` (single isomer, unassigned) [Example 126], the IC50 on human Nav1.3 channels and at human Nav1.7 channels was less than 1000 nM throughout.
